In patent publication US20040082031A1, “Inflammatory inhibition factor fwa116” (priority 2001, published 2004):

Tested on: expression of Fwa116 in human blood vessel endothelia cell
Assay: Effect of ox-LDL and soybean genistein on expression of Fwa116 (Northern blotting)
Format: cell-based
Details: cells treated with ox-LDL (200 μg/mL) and soybean genistein (100 μM) simultaneously, FIG. 3
Protocol: Low density lipoproteins (LDL) with a density of 1.019 to 1.063 obtained by density gradient centrifugation were oxidized with Cu^2+ for 24 hours, filtrated through a 0.22 μm filter membrane, and stored at 4[…] in a dark place. The value of TBARS was determined and the ox-LDL was separated by electrophoresis on agarose gel. More than 10 nmol/mg of TBARS value and the increase of electrophoretic mobility indicated successful oxidation.
The frozen tube containing human blood vessel endothelia cells was taken out from liquid-nitrogen, and put rapidly into a water bath at 37[…]]. After being melted completely, the cell suspension was inoculated to a 25 mL culture bottle containing 5 mL of RPMI or DMEM with 10% FES. Culture was carried out overnight in an incubator at 37[…] and 5% of CO2 concentration. The medium was replaced on the next day.
When Cells were grown to substantial confluency (with a covering percentage of around 80%), the original medium was discarded. After Cells were rinsed twice with 1× PBS (pH7.4), 0.125% trypsin was added, and the cells were digested for 5-10 minutes at 37 °C. […] The number of cells was counted, and the cell suspension was inoculated to a culture bottle containing 5 mL of RPMI or DMEM with 10% FES to a concentration of 100,000 cells/mL. […]

In the case of `O=c1c(-c2ccc(O)cc2)coc2cc(O)cc(O)c12` [soybean genistein, genistein], the “increase of expression of Fwa116” value is reported as “more than 10 fold”.
